The results in this text go back to article PMC12458024, “Stabilizing a Native Fold of Alpha-Synuclein with Short Helix-Constrained Peptides” (JACS Au, 2025).

“Also recorded” adds a separate entry of the source. Positions of bridges follow the written chain, without caps; N, C: chain ends. Residues, ends and D or L forms follow the SMILES beside them.

A short description of one data set: circular dichroism. As to conditions: 20 mM phosphate; pH 6.5; 30 °C; 20 uM. A general note: Circular dichroism is widely used to follow secondary structure.
The target of the next data set is T1, αS1–140 (Homo sapiens, UniProt P37840).
T1 construct: pET21a plasmid encoding human wild-type αS1–140; made in house; host or cells: E. coli BL21 (DE3)
The data set is described as follows: Lipid-induced αS aggregation assay (ThT kinetics). It is filed as biochemical. As to conditions: 100 μM αS1–140, 50 μM ThT, 50 μM DMPS SUVs, 20 mM phosphate pH 6.5, 30 °C; peptide 100 and 500 μM; n = 3. On the procedure: Dry DMPS lipid powder was accurately weighed using a Sartorius ultramicro balance and dissolved in 20 mM sodium phosphate buffer (pH 6.5) to a final concentration of 2 mM. The lipid was solubilized by shaking in a 2 mL Eppendorf tube on a Thermomixer compact (Eppendorf) at 45 °C, 1400 rpm for 3 h. The solution was then freeze–thawed five times using dry ice and a thermomixer (45 °C, 500 rpm). Vesicle formation was completed by sonication, using a Bandelin Sonopuls sonicator equipped with a TS102 probe, set to 20% amplitude, for 15 cycles (30 s on/30 s off). Vesicles were freshly prepared on the day of use. The SUVs prepared have an average diameter of approximately 30–40 nm, as characterized by dynamic light scattering (DLS) as previously described. This corresponds to vesicle concentrations in the low micromolar range.
Lipid-induced aggregation experiments were monitored using a CLARIOstar fluorescence microplate reader (BMG Labtech) under quiescent conditions (no shaking) at 30 °C. Experiments were conducted in black, clear-bottom 96-well half-area polystyrene plates with a nonbinding surface (Corning #3881), sealed with aluminum Thermowell sealing tape (Corning #6570). Each well contained 100 μL of reaction volume, run in triplicate, comprising 100 μM αS, 50 μM ThT, 50 μM DMPS (monomeric equivalent), 0.01% sodium azide, and varying concentrations of peptide (0 μM to 1 mM), all in 20 mM phosphate buffer (pH 6.5).
Instrument settings included a focal height of 4.9 mm and a gain of 800, with an excitation filter of 440 ± 15 nm, an emission filter of 480 ± 15 nm, and a 460 nm dichroic cutoff. Readings were collected from the bottom optic using a spiral averaging (4 mm diameter) with 50 flashes per well, and measurements were taken every 1200 s. The outer wells of the plate were not used to avoid evaporation

Data set [1] in a line: Circular dichroism: fractional helicity with and without DMPS SUVs (lipid binding). The format is physicochemical. The following applies: CD, 20 μM peptide, 20 mM phosphate buffer pH 6.5, 30 °C, mean of three independent measurements; for Fractional helicity (fH) with DMPS: 1000 μM DMPS vesicles; for Fractional helicity (fH) no DMPS: no lipid. On the procedure:
Far UV CD spectra scans were then recorded of the solutions on a Chirascan V100 (Applied Photophysics), at 30 °C, in a 1 mm path length quarts cuvette, scanning from 280–190 nm with a 1 nm bandwidth, averaged over 3 scans and blanked against the solutions containing the relevant DMPS vesicles in 20 mM phosphate buffer (pH 6.5).
Fractional helicity (fH) was calculated according to the equation fH=(θ222−θc)/(θ222∞−θc) where θ222∞ = (−44,000 + 250T)*(1 – k/Nr) and θc = 2220 – 53T. In these equations, the wavelength-dependent constant k = 2.4, Nr = the number of residues, and T is the temperature, 30 °C. ,

Data set [2] is described as follows: Peptide stability in human serum. The format is in vitro ADME. As to conditions: normal human serum, 30 μM peptide, 37 °C, analytical HPLC peak area normalized to t = 0, triplicate; read-out: Peptide remaining intact in human serum at 48 h. On the procedure: Serum stability assays were performed in normal human serum. Peptide stocks were initially prepared at 600 μM in H2O, and 75 μL of this stock was added to 1425 μL of normal human serum (Merck), yielding a final concentration of 30 μM. Samples were incubated at 37 °C, and 100 μL aliquots were collected at designated time points (0, 1, 2, 3, 4, 6, 22, 24, and 48 h) and then immediately stored at −80 °C. After all time points, the samples were thawed and mixed with 300 μL of acetonitrile:water (3:1, v/v) by vortexing to ensure complete mixing. Following centrifugation at 14500 rpm for 20 min, 200 μL of the supernatant was analyzed by HPLC using a Phenominex Luna 5 μm C18 100 Å analytical column, eluted with a 0–50% acetonitrile gradient containing 0.1% TFA. Peak areas were integrated and normalized to the 0-h sample. Each peptide was tested in triplicate.

The test system of a further data set is N2 C. elegans. As to conditions: dosed at L4, 0–100 μM, day 5 of adulthood.
For data set [3], the system named is SH-SY5Y cells. The data set can be described thus: Alamar Blue toxicity assay. It is filed as cell-based, human. As to conditions: 0–20 μM RhoB-labeled peptide, 30–36 h, relative to untreated controls. How it is done:
(§1) SH-SY5Y cells were plated at a density of 5,000 cells well^–1 in a half-area 96-well plate. Twenty-four hours after plating, the media was removed and replaced with media containing 10 or 20 μM of rhodamine-B labeled peptide or the equivalent volume of PBS. Cells were incubated with peptides for a further 30–36 h. As a positive control for cell lysis, 3 wells of cells were treated with 5% Triton-X 100 for 20 min, and then 20 μL of media was harvested from all wells for ToxiLight analysis according to the manufacturer’s instructions (Lonza Biologics PLC, LT07–217). Cells were then washed once with PBS and incubated for 90 min with a 1:10 dilution of AlamarBlue reagent (Invitrogen, DAL1025). Media was harvested and the fluorescence measured according to the manufacturer’s instructions. Cells were then washed twice with PBS and incubated with a 1:12.5 dilution of NucBlue (ThermoFisher Scientific, R37605) and a 1:500 dilution of CellTracker Deep Red (Invitrogen, C34565) in media for a further 30 min. Cells were then washed 2 more times in PBS and imaged.

In data set [4] the test system is SH-SY5Y cells. The data set can be described thus: ToxiLight toxicity assay. It is filed as cell-based, human. The following applies: 0–20 μM RhoB-labeled peptide, 30–36 h, Triton X-100 positive control. On the procedure: as §1

Protocol for N2 C. elegans: The C. elegans strain N2 was used as the control, while the transgenic strain NL5901 (unc-54p::αS::YFP), which expresses αS fused to YFP in the body wall muscle cells, was used to model the PD motility phenotype. Worms were synchronized by bleaching with sodium hypochlorite, and the eggs were resuspended in M9 buffer and incubated overnight at 20 °C with shaking (50 rpm) to hatch. Larvae were then transferred to nematode growth medium (NGM) agar plates seeded with E. coli OP50 as a food source and incubated in the dark at 20 °C until they reached the L4 stage.
L4-stage worms were transferred to fresh NGM agar plates containing 75 μM 5-fluoro-2’deoxyuridine (FUdR), to prevent reproduction, and seeded with E. coli OP50 as a food source. […] Nematodes were incubated in the dark at 20 °C for 5 days. Following incubation, 15 worms per condition were picked using a worm pick and placed in a drop of M9 media on a microscope slide. Movements were recorded immediately for a period of 30 s. For each condition, 5 worms per video were manually scored for the number of body bends per minute. […] A body bend was defined as a full oscillation, where the head returned to a point on the same side.

`CSCC[C@H](NC(=O)[C@H](Cc1ccccc1)NC(=O)[C@@H](NC(=O)[C@H](CC(=O)O)NC(C)=O)C(C)C)C(=O)N[C@@H](CCCCN)C(=O)NCC(=O)N[C@@H](CC(C)C)C(=O)N[C@@H](CO)C(=O)N[C@@H](CCCCN)C(=O)N[C@@H](C)C(=O)N[C@@H](CCCCN)C(N)=O` (Ac-DVFMKGLSKAK-NH2) registered a helicity in “circular dichroism” of 8.1%.
As for `CSCC[C@@H]1NC(=O)[C@H](Cc2ccccc2)NC(=O)[C@H](C(C)C)NC(=O)[C@@H](NC(C)=O)CCCCNC(=O)C[C@@H](C(=O)NCC(=O)N[C@@H](CC(C)C)C(=O)N[C@@H](CO)C(=O)N[C@@H](CCCCN)C(=O)N[C@@H](C)C(=O)N[C@@H](CCCCN)C(N)=O)NC1=O` [αS2–12(L1)] (Ac-KVFMDGLSKAK-NH2; lactam 1-5), the “Effect on lipid-induced αS1–140 aggregation (ThT)” value (from here on “Effect”) at αS1–140 is “enhanced αS aggregation”. In data set [1], the “Fractional helicity (fH) with DMPS” value is given as 0.0% and the “Fractional helicity (fH) no DMPS” value was 0.0%.
In the case of `CSCC[C@@H]1NC(=O)[C@H](Cc2ccccc2)NC(=O)[C@@H](NC(=O)[C@H](CC(=O)O)NC(C)=O)CCCCNC(=O)C[C@@H](C(=O)N[C@@H](CC(C)C)C(=O)N[C@@H](CO)C(=O)N[C@@H](CCCCN)C(=O)N[C@@H](C)C(=O)N[C@@H](CCCCN)C(N)=O)NC(=O)[C@H](CCCCN)NC1=O` [αS2–12(L2)] (Ac-DKFMKDLSKAK-NH2; lactam 2-6), the “Effect” value at αS1–140 is “most effective inhibition”. Besides, in data set [1], the “Fractional helicity (fH) with DMPS” value worked out at 14.5% and the “Fractional helicity (fH) no DMPS” value turned out to be 30.9%.
The like results for `CSCC[C@@H]1NC(=O)[C@@H](NC(=O)[C@@H](NC(=O)[C@H](CC(=O)O)NC(C)=O)C(C)C)CCCCNC(=O)C[C@@H](C(=O)N[C@@H](CO)C(=O)N[C@@H](CCCCN)C(=O)N[C@@H](C)C(=O)N[C@@H](CCCCN)C(N)=O)NC(=O)CNC(=O)[C@H](CCCCN)NC1=O` [αS2–12(L3)] (Ac-DVKMKGDSKAK-NH2; lactam 3-7) were, in that order, “most effective inhibition; also recorded: greatest inhibition of αS1–140 aggregation”, 2.9% and 14.6%.
Turning to `CC(=O)N[C@@H](CC(=O)O)C(=O)N[C@H](C(=O)N[C@@H](Cc1ccccc1)C(=O)N[C@H]1CCCCNC(=O)C[C@@H](C(=O)N[C@@H](CCCCN)C(=O)N[C@@H](C)C(=O)N[C@@H](CCCCN)C(N)=O)NC(=O)[C@H](CC(C)C)NC(=O)CNC(=O)[C@H](CCCCN)NC1=O)C(C)C` [αS2–12(L4)] (Ac-DVFKKGLDKAK-NH2; lactam 4-8), the “Effect” value on αS1–140 is reported as “enhanced αS aggregation”. Besides, in data set [1], the “Fractional helicity (fH) with DMPS” value worked out at 27.7% and the “Fractional helicity (fH) no DMPS” value was found to be 12.4%.
Take `CSCC[C@H](NC(=O)[C@H](Cc1ccccc1)NC(=O)[C@@H](NC(=O)[C@H](CC(=O)O)NC(C)=O)C(C)C)C(=O)N[C@H]1CCCCNC(=O)C[C@@H](C(=O)N[C@@H](C)C(=O)N[C@@H](CCCCN)C(N)=O)NC(=O)[C@H](CO)NC(=O)[C@H](CC(C)C)NC(=O)CNC1=O` [αS2–12(L5)] (Ac-DVFMKGLSDAK-NH2; lactam 5-9): in data set [1], the “Fractional helicity (fH) with DMPS” value is given as 3.3% and the “Fractional helicity (fH) no DMPS” value worked out at 28.9%.
In the data set “circular dichroism”, `CSCC[C@H](NC(=O)[C@H](Cc1ccccc1)NC(=O)[C@@H](NC(=O)[C@H](CC(=O)O)NC(C)=O)C(C)C)C(=O)N[C@@H](CCCCN)C(=O)N[C@H]1CCCCNC(=O)C[C@@H](C(=O)N[C@@H](CCCCN)C(N)=O)NC(=O)[C@H](CCCCN)NC(=O)[C@H](CO)NC(=O)[C@H](CC(C)C)NC1=O` [αS2–12(L6)] (Ac-DVFMKKLSKDK-NH2; lactam 6-10) gave a helicity of 31.4%. Besides, the amount remaining at 48 h, 30 μM in data set [2] was found to be 16%. For the same compound, the “Thrashing rate of wild-type N2 worms” value with N2 C. elegans is given as “no change in thrashing rate”. Also, in the data set on SH-SY5Y cells [3], the “Cytotoxicity, Alamar Blue” value was “No significant toxicity”. For the same compound, the “Cytotoxicity, ToxiLight” value with SH-SY5Y cells [4] is “No significant toxicity”.
As to `CSCC[C@H](NC(=O)[C@H](Cc1ccccc1)NC(=O)[C@@H](NC(=O)[C@H](CC(=O)O)NC(C)=O)C(C)C)C(=O)N[C@@H](CCCCN)C(=O)NCC(=O)N[C@H]1CCCCNC(=O)C[C@@H](C(N)=O)NC(=O)[C@H](C)NC(=O)[C@H](CCCCN)NC(=O)[C@H](CO)NC1=O` [αS2–12(L7)] (Ac-DVFMKGKSKAD-NH2; lactam 7-11), on αS1–140, the “Effect” value is reported as “enhanced αS aggregation”. For the same compound, in data set [1], the “Fractional helicity (fH) with DMPS” value came out at 16.8% and the “Fractional helicity (fH) no DMPS” value is 15.8%.

As a reminder, the fraction remaining is the share of the starting amount still present when the sample was taken.
